Reference: patent US10131652B2, “Pyrimidinyloxy benzene derivatives as herbicides” (E. I. DU PONT DE NEMOURS AND COMPANY, priority 2014, dated 2018)
Like-named read-outs stand apart in the source and are kept apart here.

Tests used:
Test in all cases: Test B pre-/postemergence plant response
Format in all cases: in vivo
[1] = test system: barnyardgrass (Echinochloa crus-galli); conditions: 1000 g ai/ha, 0 to 100 scale (0 no effect, 100 complete control); for pest or weed control at 1000 g/ha: Echinochloa crus-galli, 240 h, read-out: Plant response rating, Barnyardgrass
Text: (§1) Seeds of plant species selected from bamyardgrass (Echinochloa crus-galli), kochia (Kochia scoparia), ragweed (common ragweed, Ambrosia elatior), Italian ryegrass (Lolium multiflorum), large (Lg) crabgrass (Digitaria sanguinalis), giant foxtail (Setaria faberii), momingglory (Ipomoea spp.), pigweed (Amaranthus retroflexus), velvetleaf (Abutilon theophrasti), wheat (Triticum aestivum), and corn (Zea mays) were planted into a blend of loam soil and sand and treated preemergence with a directed soil spray using test chemicals formulated in a non-phytotoxic solvent mixture which included a surfactant. At the same time, plants selected from these crop and weed species and also blackgrass (Alopecurus myosuroides), and galium (catchweed bedstraw, Galium aparine) were planted in pots containing the same blend of loam soil and sand and treated with postemergence applications of test chemicals formulated in the same manner. Plants ranged in height from 2 to 10 cm and were in the one- to two-leaf stage for the postemergence treatment. Treated plants and untreated controls were maintained in a greenhouse for approximately 10 days, after which time all treated plants were compared to untreated controls and visually evaluated for injury. Plant response ratings, summarized in Table B, are based on a 0 to 100 scale where 0 is no effect and 100 is complete control. A dash (-) response means no test result.

[2] = test system: corn (Zea mays); conditions: 1000 g ai/ha, 0 to 100 scale (0 no effect, 100 complete control); for Corn plant response rating (crop injury, 0 = no effect, 100 = complete kill) at 1000 g/ha: Zea mays, 240 h
Text: as §1

[3] = test system: giant foxtail (Setaria faberii); conditions: 1000 g ai/ha, 0 to 100 scale (0 no effect, 100 complete control); for pest or weed control at 1000 g/ha: Setaria faberi, 240 h, read-out: Plant response rating, Foxtail, Giant
Text: as §1

[4] = test system: large (Lg) crabgrass (Digitaria sanguinalis); conditions: 1000 g ai/ha, 0 to 100 scale (0 no effect, 100 complete control); for pest or weed control at 1000 g/ha: Digitaria sanguinalis, 240 h, read-out: Plant response rating, Crabgrass, Large
Text: as §1

[5] = test system: morningglory (Ipomoea spp.); conditions: 1000 g ai/ha, 0 to 100 scale (0 no effect, 100 complete control); for pest or weed control at 1000 g/ha: Ipomoea, 240 h, read-out: Plant response rating, Morningglory
Text: as §1

[6] = test system: pigweed (Amaranthus retroflexus); conditions: 1000 g ai/ha, 0 to 100 scale (0 no effect, 100 complete control); for pest or weed control at 1000 g/ha: Amaranthus retroflexus, 240 h, read-out: Plant response rating, Pigweed
Text: as §1

[7] = test system: velvetleaf (Abutilon theophrasti); conditions: 1000 g ai/ha, 0 to 100 scale (0 no effect, 100 complete control); for pest or weed control at 1000 g/ha: Abutilon theophrasti, 240 h, read-out: Plant response rating, Velvetleaf
Text: as §1

[8] = test system: wheat (Triticum aestivum); conditions: 1000 g ai/ha, 0 to 100 scale (0 no effect, 100 complete control); for plant injury at 1000 g/ha: Triticum aestivum, 240 h, read-out: Plant response rating, Wheat
Text: as §1

Row | Compound | pest or weed control at 1000 g/ha ([1]; post-emergence, Postemergence) [%] | pest or weed control at 1000 g/ha ([1]; pre-emergence, Preemergence) [%] | Corn plant response rating (crop injury, 0 = no effect, 100 = complete kill) at 1000 g/ha ([2]; post-emergence, Postemergence) [%] | Corn plant response rating (crop injury, 0 = no effect, 100 = complete kill) at 1000 g/ha ([2]; pre-emergence, Preemergence) [%] | pest or weed control at 1000 g/ha ([3]; post-emergence, Postemergence) [%] | Plant response rating, Barnyardgrass ([1]; Postemergence) | Plant response rating, Barnyardgrass ([1]; Preemergence) | Plant response rating, Corn ([2]; Postemergence) | Plant response rating, Corn ([2]; Preemergence) | Plant response rating, Foxtail, Giant ([3]; Postemergence) | Plant response rating, Foxtail, Giant ([3]; Preemergence) | Plant response rating, Crabgrass, Large ([4]; Postemergence) | Plant response rating, Crabgrass, Large ([4]; Preemergence) | Plant response rating, Morningglory ([5]; Postemergence) | Plant response rating, Morningglory ([5]; Preemergence) | Plant response rating, Pigweed ([6]; Postemergence) | Plant response rating, Pigweed ([6]; Preemergence) | Plant response rating, Velvetleaf ([7]; Postemergence) | Plant response rating, Wheat ([8]; Postemergence) | Plant response rating, Wheat ([8]; Preemergence) | further results
1 | OCc1cc(-c2ccccc2Oc2ncc(Cl)cn2)no1 [Compound 31, 3-[2-[(5-chloro-2-pyrimidinyl)oxy]phenyl]-5-isoxazolemethanol] | 10 | 0 | 0 | 0 | 30 |  |  |  |  |  |  |  |  |  |  |  |  |  |  |  | pest or weed control at 1000 g/ha ([3]; pre-emergence, Preemergence): 30%; pest or weed control at 1000 g/ha ([4]; post-emergence, Postemergence): 50%; pest or weed control at 1000 g/ha ([4]; pre-emergence, Preemergence): 80%; pest or weed control at 1000 g/ha ([5]; post-emergence, Postemergence): 30%; pest or weed control at 1000 g/ha ([5]; pre-emergence, Preemergence): 0%; pest or weed control at 1000 g/ha ([6]; post-emergence, Postemergence): 30%; pest or weed control at 1000 g/ha ([6]; pre-emergence, Preemergence): 0%; pest or weed control at 1000 g/ha ([7]; post-emergence, Postemergence): 30%; pest or weed control at 1000 g/ha ([7]; pre-emergence, Preemergence): 0%; plant injury at 1000 g/ha ([8]; post-emergence, Postemergence): 0%; plant injury at 1000 g/ha ([8]; pre-emergence, Preemergence): 0%
2 | O=Cc1cc(-c2ccccc2Oc2ncc(Cl)cn2)no1 [Compound 33, 3-[2-[(5-chloro-2-pyrimidinyl)oxy]phenyl]-5-isoxazolecarboxaldehyde] | 0 | 0 | 0 | 0 | 10 |  |  |  |  |  |  |  |  |  |  |  |  |  |  |  | pest or weed control at 1000 g/ha ([3]; pre-emergence, Preemergence): 10%; pest or weed control at 1000 g/ha ([4]; post-emergence, Postemergence): 10%; pest or weed control at 1000 g/ha ([4]; pre-emergence, Preemergence): 80%; pest or weed control at 1000 g/ha ([5]; post-emergence, Postemergence): 10%; pest or weed control at 1000 g/ha ([5]; pre-emergence, Preemergence): 0%; pest or weed control at 1000 g/ha ([6]; post-emergence, Postemergence): 10%; pest or weed control at 1000 g/ha ([6]; pre-emergence, Preemergence): 40%; pest or weed control at 1000 g/ha ([7]; post-emergence, Postemergence): 0%; pest or weed control at 1000 g/ha ([7]; pre-emergence, Preemergence): 0%; plant injury at 1000 g/ha ([8]; post-emergence, Postemergence): 0%; plant injury at 1000 g/ha ([8]; pre-emergence, Preemergence): 0%
3 | ClCc1cc(-c2ccccc2Oc2ncc(Cl)cn2)no1 [Compound 34] |  |  |  |  |  | 0 | 0 | 0 | 0 | 0 | 10 | 10 | 10 | 0 | 0 | 40 | 100 | 20 | 0 | 0 | Plant response rating, Velvetleaf ([7]; Preemergence): 10
4 | N#CCc1cc(-c2ccccc2Oc2ncc(Cl)cn2)no1 [Compound 36] |  |  |  |  |  | 90 | 30 | 50 | 0 | 90 | 90 | 80 | 100 | 20 | 10 | 90 | 100 | 100 | 50 | 0 | 
5 | Clc1cnc(Oc2ccccc2-c2ncco2)nc1 [Compound 61] |  |  |  |  |  | 10 | 20 | 0 | 0 | 0 | 40 | 0 | 50 | 10 | 0 | 60 | 90 | 70 | 0 | 0 | Plant response rating, Velvetleaf ([7]; Preemergence): 50
